Laboratory results: paper PMC2192356 (The Journal of Experimental Medicine, 1996)
Where a SMILES comes first, the peptide text is derived from it. Where no end group is shown, it is not given here. The star is where a group is joined. Biotin = O=C1N[C@H]2[C@H](CS[C@H]2CCCCC(=O)*)N1

Experiments:
IAk [1] = molecular target: T1, IAk (Mus musculus, UniProt P01910+P06343); type: binding, murine; details: pH 5
IEk [2] = type: binding, murine; details: pH 5
IAd [3] = type: binding, murine; details: pH 5
IAk [4] = molecular target: T1, IAk; type: binding, murine; details: pH 5; remark: listed apart in the source
DR1 [5] = molecular target: T2, DR1 (Homo sapiens, UniProt P01903+P01911, A100R/D57E/F55L/F60I/F76Y/I96L/L162R/M171V/P40L/Q125E/R42F/V115G/Y59C); type: binding; details: pH 7
[6] = molecular target: IAk (mouse (endogenous in CH27 B lymphoma)); assay: ELISA
IEk [7] = type: binding, murine; details: pH 5; remark: listed apart in the source
class II proteins = type: binding
IAk [8] = molecular target: T1, IAk; type: binding, murine; details: pH 5; remark: listed apart in the source
IAd [9] = type: binding, murine; details: pH 5; remark: listed apart in the source
IEd = type: binding, murine; details: pH 5
IAb = type: binding, murine
IEk [10] = type: binding, murine; details: pH 5; remark: listed apart in the source
DR1 [11] = molecular target: T2, DR1; type: binding; details: pH 5
DR1 [12] = molecular target: T2, DR1; type: binding; details: pH 7; remark: listed apart in the source
[13] = test system: 3DO-54.8 T cells with CH27 APC; type: cell-based
IAk [14] = molecular target: T1, IAk; type: binding, murine; details: pH 7
[15] = molecular target: DR1 (human (endogenous in LG2)) (UniProt P01903); assay: ELISA

## CC(C)C[C@H](NC(=O)[C@H](C)NC(=O)[C@H](CCC(=O)O)NC(=O)[C@@H](NC(=O)[C@H](CC(C)C)NC(=O)[C@H](Cc1c[nH]cn1)NC(=O)CCCC[C@@H]1SC[C@@H]2NC(=O)N[C@@H]21)C(C)C)C(=O)N[C@@H](Cc1ccc(O)cc1)C(=O)N[C@@H](CC(C)C)C(=O)N[C@H](C(=O)N[C@@H](CS)C(=O)NCC(=O)N[C@@H](CCC(=O)O)C(=O)N[C@@H](CCCNC(=N)N)C(=O)NCC(=O)N[C@@H](Cc1ccccc1)C(=O)N[C@@H](Cc1ccccc1)C(=O)N[C@@H](Cc1ccc(O)cc1)C(=O)N[C@H](C(=O)N1CCC[C@H]1C(=O)N[C@@H](CCCCNC(=O)CCCC[C@@H]1SC[C@@H]2NC(=O)N[C@@H]21)C(=O)N[C@@H](C)C(=O)O)[C@@H](C)O)C(C)C [biotin-B(10-30)] (Biotin-HLVEALYLVCGERGFFYTPK(Biotin)A-OH; N-terminus and C-terminus assumed)
IAk [1]
  time to saturate the alternative binding site of IAk: ≤ 1 h

## FVNQHLCGSHLVEALYLVCGER [B(1-22)]
IEk [2]
  inhibition of the binding of biotin-B(10-30): inhibits
IAd [3]
  inhibition of the binding of biotin-B(10-30): inhibits
IAk [4]
  inhibition of the binding of biotin-B(10-30): inhibits

## MAT(17-31): DR1-binding antigenic peptide defined by specific T cells (SGPLKAEIAQRLEDV)
DR1 [5]
  inhibition of the binding of biotin-B(10-30) to DR1: 25- 50%

## biotin-SEB (from UniProt P01552 28-266) (natural protein)
[6]
  Kd: 62 nM

## HLVEALYLVCGERGFFYTPKA [B(10-30)]
IEk [7]
  affinity for the groove of IEk relative to pCc(91-104), logs lower: at least 3 logs
  inhibition of the binding of allele-specific antigenic peptides: only weakly inhibited
Class II proteins
  dissociation rate from class II: relatively rapid
  pH dependence of binding to murine class II proteins: not enhanced
  time to approach saturation / plateau of binding to class II: 1 to 2 h
IEk [2]
  inhibition of the binding of biotin-B(10-30): inhibit
IAk [8]
  inhibition of the binding of allele-specific antigenic peptides: only weakly inhibited
IAd [9]
  specific binding to class II protein: binds
IEd
  specific binding to class II protein: binds
IAb
  specific binding to class II protein: binds
IEk [10]
  specific binding to class II protein: binds
IAd [3]
  inhibition of the binding of biotin-B(10-30): inhibit
IAk [1]
  specific binding to class II protein: binds
DR1 [11]
  specific binding to class II protein: binds
IAk [4]
  inhibition of the binding of biotin-B(10-30): inhibit
DR1 [12]
  affinity for DR1 relative to HA(306-318), logs lower: ~ 3 logs
  inhibition of the binding of allele-specific antigenic peptides: only weakly inhibited
[13]
  inhibition of the response of 3DO-54.8 to SEB (IL-2): inhibited
3DO-54.8 T cells
  effect on stimulation by anti-CD3 mAb (T cell toxicity): not altered
IAk [14]
  inhibition of the binding of biotin-SEB to IAk: inhibited
  peptide concentration giving complete inhibition of SEB binding to IAk: 4

## Intact insulin [reference compound]
IEk [2]
  inhibition of the binding of biotin-B(10-30): does not inhibit
IAd [3]
  inhibition of the binding of biotin-B(10-30): does not inhibit
IAk [4]
  inhibition of the binding of biotin-B(10-30): does not inhibit

## RADLIAYLKQATAK [pCc(91-104), reference compound]
IEk [7]
  inhibition of the binding of allele-specific antigenic peptides: inhibit

## Myo(106-118): IAd-binding peptide (FISEAIIHVLHSR) [reference compound]
Class II proteins
  inhibition of biotin-B(10-30) binding to class II: inhibits

## NTDGSTDYGILQINSR [HEL(46-61), reference compound]
IEk [7]
  affinity for the groove of IEk relative to pCc(91-104), logs lower: at least 3 logs
[13]
  inhibition of the response of 3DO-54.8 to SEB (IL-2): did not
IAk [14]
  inhibition of the binding of biotin-SEB to IAk: No inhibition

B1: biotin-B(10-30) (peptide)
peptide: HLVEALYLVCGERGFFYTPKA
modifications: not fully specified (N-terminus); also: biotin (site not given here)
[15]
  Kd: 620 nM
